Reference: PMC7904550, “Application of grouping and read-across for the evaluation of parabens of different chain lengths with a particular focus on endocrine properties” (Archives of Toxicology, 2021)

Key:
in vivo = conditions: for AUC(0-t) / Cmax / Tmax / concentration at 1 h: Wistar, rat, serum; for AUC(0-t) / Cmax / Tmax: po; for AUC(0-t) / Cmax / AUC0-1 h/AUC0–t / C1h/Cmax / Clast / tlast: parent compound; for concentration at 1 h: oral
Outline: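 Test item given by oral gavage at 500 and 1000 mg/kg bw to 10 males and 10 females per dose group, following OECD TG 417. Serum parent parabens and the metabolite p-hydroxybenzoic acid were measured by […] (LOQ 10 ng/mL parabens, 130 ng/mL p-hydroxybenzoic acid). Faeces and urine were not analysed.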

Wistar rats = assay: 90-day repeated dose oral toxicity study (OECD TG 408); format: in vivo, rat; conditions: for NOAEL, 90-day repeated-dose toxicity: OECD 408 v 2018, oral gavage
Text: Healthy and specific pathogen-free male and female (non-pregnant and nulliparous) Wistar Crl: WI(Han) rats were obtained from Charles River Laboratories (Germany). […] Upon arrival at BSL BIOSERVICE, the animals underwent an acclimatisation period of at least 5 days, and they were approximately 15–16 weeks old at the onset of the treatment period.

mammalian cells = conditions: cited from earlier work

CCCOC(=O)c1ccc(O)cc1 [Propyl paraben, Propyl 4-hydroxybenzoate]
AUC(0-t) (in vivo; female, 500 mg/kg, AUC0-1 h): 291 ng·h/mL
AUC(0-t) (in vivo; female, 500 mg/kg, AUC0–t): 1120 ng·h/mL
Cmax (in vivo; female, 500 mg/kg): 1390 ng/mL
Tmax (in vivo; female, 1000 mg/kg): 10.2 min
AUC(0-t) (in vivo; female, 1000 mg/kg, AUC0-1 h): 156 ng·h/mL
AUC(0-t) (in vivo; female, 1000 mg/kg, AUC0–t): 317 ng·h/mL
Cmax (in vivo; female, 1000 mg/kg): 940 ng/mL
concentration at 1 h (in vivo; male, 500 mg/kg): 23 ng/mL
concentration at 1 h (in vivo; male, 1000 mg/kg): 62.3 ng/mL
Tmax (in vivo; male, 500 mg/kg): 10.2 min
AUC(0-t) (in vivo; male, 500 mg/kg, AUC0-1 h): 94.9 ng·h/mL
AUC(0-t) (in vivo; male, 500 mg/kg, AUC0–t): 150 ng·h/mL
Cmax (in vivo; male, 500 mg/kg): 345 ng/mL
Tmax (in vivo; male, 1000 mg/kg): 10.2 min
AUC(0-t) (in vivo; male, 1000 mg/kg, AUC0-1 h): 175 ng·h/mL
AUC(0-t) (in vivo; male, 1000 mg/kg, AUC0–t): 380 ng·h/mL
Cmax (in vivo; male, 1000 mg/kg): 735 ng/mL
AUC0-1 h/AUC0–t (in vivo; 500 mg/kg, female): 26%
C1h/Cmax (in vivo; 500 mg/kg, female): 4.9%
Clast (in vivo; 500 mg/kg, female): 136 ng/mL
tlast (in vivo; 500 mg/kg, female): 8.0 h
AUC0-1 h/AUC0–t (in vivo; 500 mg/kg, male): 63%
C1h/Cmax (in vivo; 500 mg/kg, male): 6.7%
Clast (in vivo; 500 mg/kg, male): 13.6 ng/mL
tlast (in vivo; 500 mg/kg, male): 4.0 h
AUC0-1 h/AUC0–t (in vivo; 1000 mg/kg, female): 49%
C1h/Cmax (in vivo; 1000 mg/kg, female): 2.1%
Clast (in vivo; 1000 mg/kg, female): 11.6 ng/mL
tlast (in vivo; 1000 mg/kg, female): 8.0 h
AUC0-1 h/AUC0–t (in vivo; 1000 mg/kg, male): 46%
C1h/Cmax (in vivo; 1000 mg/kg, male): 8.5%
Clast (in vivo; 1000 mg/kg, male): 14.3 ng/mL
tlast (in vivo; 1000 mg/kg, male): 8.0 h
NOAEL, 90-day repeated-dose toxicity (Wistar rats): NOAEL: 1000 (OECD 408; v 2018) mg/kg body weight/day
NOAEL, 90-day repeated-dose toxicity (Wistar rats; listed as propyl paraben): 1000 mg/kg body weight/day
Accessory sex organs HP (Wistar rats; P0): NAE / NAE
Adrenals HP (Wistar rats; P0): NAE / NAE
Adrenals weight (Wistar rats; P0): NAE / NAE
Brain weight (Wistar rats; P0): NAE / NAE
Cervix HP (Wistar rats; P0): NAE / NAE
Coagulating gland HP (Wistar rats; P0): NAE / NAE
Coagulating gland weight (Wistar rats; P0): NAE / NAE
Epididymis HP (Wistar rats; P0): NAE / NAE
Epididymis weight (Wistar rats; P0): NAE / NAE
Liver weight (Wistar rats; P0): NAE / NAE
Mammary gland HP; females (Wistar rats; P0): NAE / NAE
Mammary gland HP; males (Wistar rats; P0): NAE / NAE
Oestrus cyclicity (Wistar rats; P0): NAE / NAE
Ovary HP (Wistar rats; P0): NAE / NAE
Ovary weight (Wistar rats; P0): NAE / NAE
Oviduct HP (Wistar rats; P0): NAE / NAE
Pituitary HP (Wistar rats; P0): NAE / NAE
Pituitary weight (Wistar rats; P0): NAE / NAE
Prostate HP (Wistar rats; P0): NAE / NAE
Prostate weight (Wistar rats; P0): NAE / NAE
Seminal vesicles HP (Wistar rats; P0): NAE / NAE
Seminal vesicles weight (Wistar rats; P0): NAE / NAE
Testis HP (Wistar rats; P0): NAE / NAE
Testis weight (Wistar rats; P0): NAE / NAE
Thyroid HP (Wistar rats; P0): NAE / NAE
Thyroid stimulating hormone level (Wistar rats; P0): NAE / NAE
Thyroid weight (Wistar rats; P0): NAE / NAE
Triiodothyronine / thyroxine level (Wistar rats; P0): NAE / NAE
Uterus HP (with cervix) (Wistar rats; P0): NAE / NAE
Uterus weight (with cervix) (Wistar rats; P0): NAE / NAE
Vagina HP (Wistar rats; P0): NAE / NAE
Vaginal smears (Wistar rats; P0): NAE / NAE
Signs of systemic toxicity (Wistar rats; sub-chronic (90-day) oral application): did not induce any signs of systemic toxicity
Mutagenicity in mammalian cells classification (mammalian cells): Not mutagenic [c] (OECD 476; 2012)
